Source: the kinase profiling compilation of Christmann-Franck et al. (2016)

Tests used:
HIPK1 (human) = HIPK1 (human) (UniProt Q86Z02); assay: SelectScreen, TR FRET
HIPK2 (human) [1] = biological target: HIPK2 (human) (UniProt Q9H2X6); assay: SelectScreen, TR FRET
[2] = test system: EGFR (human), P00533 [L858R]; assay: KINOMEscan competition binding; details: compound 10.0 µM
PRKG1 (human) = PRKG1 (human) (UniProt Q13976); assay: KINOMEscan competition binding; details: compound 10.0 µM
IKBKB (human) = IKBKB (human) (UniProt O14920); assay: KINOMEscan competition binding; details: compound 10.0 µM
CSF1R (human) = CSF1R (human) (UniProt P07333); assay: KINOMEscan competition binding; details: compound 10.0 µM
TSSK1B (human) = TSSK1B (human) (UniProt Q9BXA7); assay: KINOMEscan competition binding; details: compound 10.0 µM
PKN2 (human) = PKN2 (human) (UniProt Q16513); assay: KINOMEscan competition binding; details: compound 10.0 µM
RPS6KA2 KD1 (human) = RPS6KA2 KD1 (human) (UniProt Q15349); assay: KINOMEscan competition binding; details: compound 10.0 µM
[3] = biological target: JAK1 JH1 catalytic (human) (UniProt P23458); assay: KINOMEscan competition binding; details: compound 10.0 µM
LYN (human) = LYN (human) (UniProt P07948); assay: KINOMEscan competition binding; details: compound 10.0 µM
RAF1 (human) = RAF1 (human) (UniProt P04049); assay: KINOMEscan competition binding; details: compound 10.0 µM
[4] = test system: ABL1 (human), P00519 [F317I]; assay: KINOMEscan competition binding; details: compound 10.0 µM
ADCK3 (human) = ADCK3 (human) (UniProt Q8NI60); assay: KINOMEscan competition binding; details: compound 10.0 µM
PTK6 (human) = PTK6 (human) (UniProt Q13882); assay: KINOMEscan competition binding; details: compound 10.0 µM
HIPK2 (human) [5] = biological target: HIPK2 (human) (UniProt Q9H2X6); assay: KINOMEscan competition binding
DYRK1A (human) = DYRK1A (human) (UniProt Q13627); assay: KINOMEscan competition binding
DYRK2 (human) = DYRK2 (human) (UniProt Q92630); assay: KINOMEscan competition binding
BRAF (human) = BRAF (human) (UniProt P15056); assay: KINOMEscan competition binding; details: compound 10.0 µM
[6] = test system: BRAF (human), P15056 [V600E]; assay: KINOMEscan competition binding; details: compound 10.0 µM
PIM2 (human) = PIM2 (human) (UniProt Q9P1W9); assay: SelectScreen, TR FRET
PIM1 (human) = PIM1 (human) (UniProt P11309); assay: SelectScreen, TR FRET
AURKB (human) = AURKB (human) (UniProt Q96GD4); assay: SelectScreen, TR FRET
AURKC (human) = AURKC (human) (UniProt Q9UQB9); assay: SelectScreen, TR FRET

ADCK3 (human), sequence (Q8NI60 whole entry, looked up): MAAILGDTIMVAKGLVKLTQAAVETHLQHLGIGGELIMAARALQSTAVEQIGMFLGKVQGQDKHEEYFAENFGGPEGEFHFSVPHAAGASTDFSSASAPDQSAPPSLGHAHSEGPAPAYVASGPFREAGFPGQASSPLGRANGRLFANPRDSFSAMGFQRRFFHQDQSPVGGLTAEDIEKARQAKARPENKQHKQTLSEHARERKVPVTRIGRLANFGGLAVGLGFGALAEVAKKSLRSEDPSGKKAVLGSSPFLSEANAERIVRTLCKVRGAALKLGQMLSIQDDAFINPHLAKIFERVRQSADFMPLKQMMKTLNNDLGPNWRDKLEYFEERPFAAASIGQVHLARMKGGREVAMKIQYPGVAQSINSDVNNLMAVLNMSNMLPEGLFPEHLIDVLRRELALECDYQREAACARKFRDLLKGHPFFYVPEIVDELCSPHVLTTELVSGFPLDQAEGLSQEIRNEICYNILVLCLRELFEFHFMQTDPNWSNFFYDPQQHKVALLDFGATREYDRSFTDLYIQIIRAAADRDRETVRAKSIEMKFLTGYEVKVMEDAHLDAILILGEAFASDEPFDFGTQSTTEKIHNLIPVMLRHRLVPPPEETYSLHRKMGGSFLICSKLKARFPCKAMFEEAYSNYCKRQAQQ
CSF1R (human), sequence (P07333 whole entry, looked up): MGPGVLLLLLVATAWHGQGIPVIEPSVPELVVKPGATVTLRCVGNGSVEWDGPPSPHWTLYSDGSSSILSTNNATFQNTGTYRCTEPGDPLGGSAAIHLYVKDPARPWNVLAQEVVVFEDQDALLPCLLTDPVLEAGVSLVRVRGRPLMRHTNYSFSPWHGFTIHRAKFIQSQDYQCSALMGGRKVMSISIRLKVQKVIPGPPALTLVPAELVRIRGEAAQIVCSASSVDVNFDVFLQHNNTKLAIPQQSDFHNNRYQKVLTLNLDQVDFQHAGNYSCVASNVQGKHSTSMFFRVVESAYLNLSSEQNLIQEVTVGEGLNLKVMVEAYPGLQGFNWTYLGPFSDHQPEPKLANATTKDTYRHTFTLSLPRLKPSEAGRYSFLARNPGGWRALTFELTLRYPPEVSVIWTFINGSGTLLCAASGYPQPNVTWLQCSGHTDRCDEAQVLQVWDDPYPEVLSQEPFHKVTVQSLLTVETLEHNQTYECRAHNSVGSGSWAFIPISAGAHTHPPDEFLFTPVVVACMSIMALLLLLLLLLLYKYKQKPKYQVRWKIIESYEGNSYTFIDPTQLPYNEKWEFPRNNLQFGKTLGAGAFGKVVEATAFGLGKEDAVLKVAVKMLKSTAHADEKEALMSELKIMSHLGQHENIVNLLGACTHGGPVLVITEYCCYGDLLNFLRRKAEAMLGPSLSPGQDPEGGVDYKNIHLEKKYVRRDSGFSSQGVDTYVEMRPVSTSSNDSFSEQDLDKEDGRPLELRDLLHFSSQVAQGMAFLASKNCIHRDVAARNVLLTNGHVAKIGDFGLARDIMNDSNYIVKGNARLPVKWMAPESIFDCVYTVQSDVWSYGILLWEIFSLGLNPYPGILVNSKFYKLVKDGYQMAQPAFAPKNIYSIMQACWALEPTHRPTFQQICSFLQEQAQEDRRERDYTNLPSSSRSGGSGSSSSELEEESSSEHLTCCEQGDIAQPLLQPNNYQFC
RAF1 (human), sequence (P04049 whole entry, looked up): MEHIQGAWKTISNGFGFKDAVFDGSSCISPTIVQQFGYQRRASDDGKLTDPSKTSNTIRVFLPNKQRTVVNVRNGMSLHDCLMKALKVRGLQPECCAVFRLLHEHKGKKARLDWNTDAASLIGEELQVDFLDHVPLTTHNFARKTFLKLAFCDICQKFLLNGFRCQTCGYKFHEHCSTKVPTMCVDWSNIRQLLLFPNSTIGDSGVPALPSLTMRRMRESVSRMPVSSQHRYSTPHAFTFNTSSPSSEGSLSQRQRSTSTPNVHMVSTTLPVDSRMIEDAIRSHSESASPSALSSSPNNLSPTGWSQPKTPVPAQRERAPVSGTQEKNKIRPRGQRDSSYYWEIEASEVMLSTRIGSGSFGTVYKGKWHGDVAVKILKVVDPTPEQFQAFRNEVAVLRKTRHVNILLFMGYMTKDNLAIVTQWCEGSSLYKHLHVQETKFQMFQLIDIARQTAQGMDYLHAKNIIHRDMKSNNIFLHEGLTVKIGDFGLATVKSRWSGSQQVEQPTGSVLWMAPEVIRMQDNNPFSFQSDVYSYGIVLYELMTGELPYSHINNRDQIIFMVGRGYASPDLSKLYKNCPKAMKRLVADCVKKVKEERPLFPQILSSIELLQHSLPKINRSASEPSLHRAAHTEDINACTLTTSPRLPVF
TSSK1B (human), sequence (Q9BXA7 whole entry, looked up): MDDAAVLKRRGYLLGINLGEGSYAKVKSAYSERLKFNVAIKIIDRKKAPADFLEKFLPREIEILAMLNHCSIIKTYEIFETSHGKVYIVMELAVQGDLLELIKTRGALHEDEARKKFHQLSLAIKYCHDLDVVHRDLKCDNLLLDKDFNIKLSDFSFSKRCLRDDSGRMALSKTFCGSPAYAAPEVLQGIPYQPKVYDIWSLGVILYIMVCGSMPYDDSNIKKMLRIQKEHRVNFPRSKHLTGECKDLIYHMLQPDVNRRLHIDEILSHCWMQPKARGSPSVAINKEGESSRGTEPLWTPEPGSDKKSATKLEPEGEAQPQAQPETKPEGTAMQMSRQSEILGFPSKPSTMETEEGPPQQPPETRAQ
PIM2 (human), sequence (Q9P1W9 whole entry, looked up): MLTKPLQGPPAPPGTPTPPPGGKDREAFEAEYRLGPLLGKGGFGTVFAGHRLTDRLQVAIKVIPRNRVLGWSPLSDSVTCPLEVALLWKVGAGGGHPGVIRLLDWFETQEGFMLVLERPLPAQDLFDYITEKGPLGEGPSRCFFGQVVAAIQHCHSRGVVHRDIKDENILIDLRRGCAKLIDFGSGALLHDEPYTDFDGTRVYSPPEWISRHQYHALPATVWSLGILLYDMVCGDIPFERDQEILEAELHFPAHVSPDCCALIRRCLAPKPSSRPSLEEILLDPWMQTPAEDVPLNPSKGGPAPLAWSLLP
LYN (human), sequence (P07948 whole entry, looked up): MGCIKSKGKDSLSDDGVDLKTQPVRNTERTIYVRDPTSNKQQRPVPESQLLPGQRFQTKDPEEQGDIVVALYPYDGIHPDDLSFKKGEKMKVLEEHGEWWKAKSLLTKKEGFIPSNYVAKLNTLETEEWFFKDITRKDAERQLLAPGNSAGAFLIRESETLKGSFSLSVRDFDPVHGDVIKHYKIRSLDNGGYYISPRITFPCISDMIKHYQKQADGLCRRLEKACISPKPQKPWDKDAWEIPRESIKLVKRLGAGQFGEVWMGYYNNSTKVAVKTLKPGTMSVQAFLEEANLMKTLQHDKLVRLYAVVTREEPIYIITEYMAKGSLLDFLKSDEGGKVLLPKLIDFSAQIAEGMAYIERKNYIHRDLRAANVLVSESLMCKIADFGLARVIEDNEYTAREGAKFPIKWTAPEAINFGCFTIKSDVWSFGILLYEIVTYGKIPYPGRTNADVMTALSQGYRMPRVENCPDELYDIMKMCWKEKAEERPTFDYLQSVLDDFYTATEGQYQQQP
JAK1 JH1 catalytic (human), sequence (P23458 whole entry, looked up): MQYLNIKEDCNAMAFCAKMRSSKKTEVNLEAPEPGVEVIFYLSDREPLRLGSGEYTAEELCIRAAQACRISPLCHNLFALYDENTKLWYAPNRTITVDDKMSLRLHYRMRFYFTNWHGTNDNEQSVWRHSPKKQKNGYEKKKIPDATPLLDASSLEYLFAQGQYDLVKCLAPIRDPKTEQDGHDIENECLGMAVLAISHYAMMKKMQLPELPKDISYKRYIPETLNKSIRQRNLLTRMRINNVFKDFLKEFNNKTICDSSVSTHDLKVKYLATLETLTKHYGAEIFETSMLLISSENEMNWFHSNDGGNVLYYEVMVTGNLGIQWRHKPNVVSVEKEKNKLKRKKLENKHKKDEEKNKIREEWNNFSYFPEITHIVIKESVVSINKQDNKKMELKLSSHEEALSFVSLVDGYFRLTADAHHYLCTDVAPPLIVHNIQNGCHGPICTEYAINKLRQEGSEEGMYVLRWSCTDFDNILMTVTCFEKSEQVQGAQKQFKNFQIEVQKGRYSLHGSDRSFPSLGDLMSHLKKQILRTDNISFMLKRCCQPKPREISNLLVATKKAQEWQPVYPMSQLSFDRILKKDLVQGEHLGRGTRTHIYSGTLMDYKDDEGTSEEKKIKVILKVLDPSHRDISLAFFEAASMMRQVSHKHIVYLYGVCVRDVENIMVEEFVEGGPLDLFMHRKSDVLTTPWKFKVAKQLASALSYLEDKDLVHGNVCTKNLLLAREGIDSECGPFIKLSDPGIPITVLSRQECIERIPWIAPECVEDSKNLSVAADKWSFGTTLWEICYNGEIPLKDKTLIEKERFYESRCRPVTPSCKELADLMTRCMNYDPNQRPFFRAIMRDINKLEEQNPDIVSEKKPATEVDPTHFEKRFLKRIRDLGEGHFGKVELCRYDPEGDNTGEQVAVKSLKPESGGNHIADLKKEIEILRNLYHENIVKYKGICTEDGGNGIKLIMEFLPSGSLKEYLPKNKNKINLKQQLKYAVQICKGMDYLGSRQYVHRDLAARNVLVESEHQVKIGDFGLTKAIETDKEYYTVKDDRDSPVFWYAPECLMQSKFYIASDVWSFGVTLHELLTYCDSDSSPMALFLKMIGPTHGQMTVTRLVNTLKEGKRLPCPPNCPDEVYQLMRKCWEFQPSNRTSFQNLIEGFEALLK
PIM1 (human), sequence (P11309 whole entry, looked up): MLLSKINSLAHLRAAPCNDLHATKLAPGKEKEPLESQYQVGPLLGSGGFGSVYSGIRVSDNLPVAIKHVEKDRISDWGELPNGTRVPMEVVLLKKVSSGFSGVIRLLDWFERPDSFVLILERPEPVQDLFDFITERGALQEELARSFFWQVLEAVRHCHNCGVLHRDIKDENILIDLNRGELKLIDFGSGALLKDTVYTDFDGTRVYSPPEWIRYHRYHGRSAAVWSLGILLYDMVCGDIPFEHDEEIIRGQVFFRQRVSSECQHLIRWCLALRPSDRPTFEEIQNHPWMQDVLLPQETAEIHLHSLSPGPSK

| SMILES | kinase still bound, per cent of control [2] | kinase still bound, per cent of control (PRKG1 (human)) | kinase still bound, per cent of control (IKBKB (human)) | kinase still bound, per cent of control (CSF1R (human)) | kinase still bound, per cent of control (TSSK1B (human)) | kinase still bound, per cent of control (PKN2 (human)) | kinase still bound, per cent of control (RPS6KA2 KD1 (human)) | kinase still bound, per cent of control [3] | kinase still bound, per cent of control (LYN (human)) | kinase still bound, per cent of control (RAF1 (human)) | kinase still bound, per cent of control [4] | kinase still bound, per cent of control (ADCK3 (human)) | kinase still bound, per cent of control (PTK6 (human)) | further results |
| --- | --- | --- | --- | --- | --- | --- | --- | --- | --- | --- | --- | --- | --- | --- |
| Nc1cccc(-c2cc(/C=C3\SC(=O)NC3=O)c[nH]c2=O)c1 | 29% | – | – | – | – | – | – | – | – | – | – | – | – | IC50 (HIPK1 (human)): 244 nM; IC50 (HIPK2 (human) [1]): 166 nM |
| CN1CCN(c2ccc(C(=O)Nc3ncc4c(n3)N(C)c3ccccc3C(=O)N4C)cc2)CC1 | 100% | 100% | 100% | 71% | 100% | 78% | 100% | 100% | 94% | 100% | 96% | 100% | 100% | – |
| CS(=O)(=O)Nc1ccc(-c2cc(/C=C3\SC(=N)NC3=O)c[nH]c2=O)cc1 | – | – | – | – | – | 15% | – | – | – | – | – | – | – | IC50 (HIPK1 (human)): 1160 nM; IC50 (HIPK2 (human) [1]): 300 nM |
| O=C1NC(=O)/C(=C/c2c[nH]c(=O)c(-c3ccc(N4CCNCC4)nc3)c2)S1 | 49% | 100% | 84% | 69% | 2.9% | 41% | 64% | 24% | 77% | 94% | 100% | 76% | 83% | IC50 (HIPK1 (human)): 136 nM; IC50 (HIPK2 (human) [1]): 74 nM; Kd (HIPK2 (human) [5]): 9.5 nM; Kd (DYRK1A (human)): 8.8 nM; Kd (DYRK2 (human)): 250 nM |
| CN1C(=O)c2ccccc2N(C)c2nc(Nc3ccc(N4CCC(O)CC4)cc3)ncc21 | 93% | 100% | 86% | 5.8% | 100% | 92% | 68% | 30% | 80% | 100% | 28% | 100% | 86% | kinase still bound, per cent of control (BRAF (human)): 94%; kinase still bound, per cent of control [6]: 100% |
| CN1C(=O)[C@H]2CCC[C@H]2N(C2CCCC2)c2nc(Nc3ccc(C(N)=O)cc3)ncc21 | – | – | – | – | – | – | 24% | – | – | – | – | – | – | – |
| CN1C(=O)c2ccccc2N(C)c2nc(NS(=O)(=O)c3ccc(N)cc3)ncc21 | 100% | 100% | 100% | 89% | 100% | 70% | 100% | 100% | 100% | 100% | 100% | 99% | 100% | – |
| COc1cc(N2CCN(C)CC2)ccc1Nc1ncc2c(n1)Nc1ccccc1NC2=O | 28% | 100% | 100% | 75% | 64% | 100% | 61% | 50% | 77% | 89% | 65% | 100% | 82% | – |
| O=C1NC(=S)S/C1=C\c1ccc(-c2cncc3ccccc23)o1 | – | – | – | – | – | – | – | – | – | 25% | – | – | – | IC50 (PIM2 (human)): 92 nM; IC50 (PIM1 (human)): 284 nM |
| N=C1NC(=O)/C(=C/c2ccc(-c3ccc(C(N)=O)cc3O)o2)S1 | – | – | – | – | – | 31% | – | – | – | – | – | – | – | IC50 (PIM2 (human)): 57 nM; IC50 (PIM1 (human)): 32 nM |
| COc1cc(N2CCN(C)CC2)ccc1Nc1ncc2c(n1)N(C)c1sccc1C(=O)N2C | 63% | 100% | 65% | 54% | 38% | 90% | 82% | 100% | 100% | 94% | 6.6% | 100% | 56% | – |
| N=C1NC(=O)/C(=C/c2c[nH]c(=O)c(-c3ccc(N4CCNCC4)nc3)c2)S1 | – | – | – | – | 9.8% | – | – | – | – | – | – | – | – | IC50 (HIPK1 (human)): 507 nM; IC50 (HIPK2 (human) [1]): 289 nM |
| N=C1NC(=O)/C(=C/c2ccc(-c3ccccc3O)o2)S1 | – | – | – | – | – | – | – | – | – | – | – | – | – | IC50 (PIM2 (human)): 114 nM; IC50 (PIM1 (human)): 94 nM |
| N=C1NC(=O)/C(=C/c2ccc(-c3ccc(F)cc3O)o2)S1 | – | – | – | – | – | – | – | – | – | – | – | – | – | IC50 (PIM2 (human)): 96 nM; IC50 (PIM1 (human)): 110 nM |
| CS(=O)(=O)Nc1ccc(-c2cncc(/C=C3\SC(=N)NC3=O)c2)cc1 | – | – | – | – | – | – | – | – | – | – | – | – | – | kinase still bound, per cent of control (BRAF (human)): 32%; kinase still bound, per cent of control [6]: 34% |
| N=C1NC(=O)/C(=C/c2ccc(-c3cncc4ccccc34)o2)S1 | – | – | 26% | – | – | 32% | 26% | – | – | – | – | – | – | IC50 (AURKB (human)): 29 nM; IC50 (AURKC (human)): 154 nM |
| COc1cc(N2CCN(C)CC2)ccc1Nc1ncc2c(n1)N(C)c1ccccc1N(C)C2=O | 43% | 100% | 75% | 27% | 53% | 100% | 82% | 53% | 79% | 94% | 67% | 85% | 32% | – |
| COc1cc(N2CCC(O)CC2)ccc1Nc1ncc2c(n1)N1CCc3cccc(c31)C(=O)N2C | 88% | 85% | 92% | 67% | 74% | 100% | 77% | 100% | 92% | 98% | 88% | 78% | 100% | – |
| CSC1=NC(=O)/C(=C/c2c[nH]c(=O)c(-c3ccc(NS(C)(=O)=O)cc3)c2)S1 | – | – | 25% | – | – | – | – | – | – | – | – | – | – | IC50 (HIPK1 (human)): 1960 nM; IC50 (HIPK2 (human) [1]): 618 nM |
| N=C1NC(=O)/C(=C/c2ccc(-c3csc4ccccc34)o2)S1 | – | – | – | – | – | – | – | – | – | 33% | – | – | – | IC50 (PIM2 (human)): 628 nM; IC50 (PIM1 (human)): 3270 nM |
